Experimental data taken from patent publication US20020143059A1, “Skin care product containing retinoids, retinoid booster and phytoestrogens in a dual compartment package” (priority 2000, published 2002).

How the values were obtained:
[1] = tested on: retinoic acid oxidation (cytochrome P450 systems); test: Assay for NADPH Dependent Retinoic Acid Oxidation, liver microsomes; type: biochemical, rat; conditions: for % Inhibition Retinoic Acid (100 μM): 100 μM compound; for % Inhibition Retinoic Acid (10 μM): 10 μM compound
Protocol: The resulting tissue suspension was further homogenized in the motor driven Teflon homogenizer described above. […] The pellet was sonicated in ˜5 mL of 0.1M PO4/0.1 mM EDTA/5 mM MgCl2, pH 7.4 buffer as described above and stored as aliquots at −70° C. Protein concentrations were determined as described above.
Prepare the following assay buffer and store at 4° C.: 0.1M PO4/0.1 mM EDTA/5 mM MgCl2, pH 7.4. On the day of the assay, prepare a 60 mM NADPH solution in buffer. Prepare inhibitor stocks, acidified ethanol/BHT quench solution, and hexane/BHT as described above. A working 1 mM retinoic acid solution was prepared by dilution of a 15 mM stock (in DMSO) with ethanol.
Incubate for 5 min. at 37° C., then add 5 μL working 1 mM retinoic acid solution. […] Quench with acidified ethanol/BHT and extract with hexane/BHT as described above. Quantitate the quickly eluting polar retinoic acid metabolites (presumed to be 4-oxo retinoic acid) by integration of the HPLC signal, as described below.
Note that all steps subsequent to the addition of retinoic acid were done in the dark or under amber lights. The final incubation solution contains 2.4 mM NADPH, 100 μM or less inhibitor, 10 μM retinoic acid, approximately 4 mg/mL rat liver microsomal protein and nearly 0.1 M PO4/0.1 mM EDTA/5 mM MgCl2.
(§1) Samples for retinoid quantitation by HPLC were prepared by dissolving the residue in each vial with 100 μL of methanol. […] Aliquots of 60 μL were injected immediately and analyzed for retinoid content.
(§2) Two HPLC protocols were used for retinoid analysis. […] This system consisted of a 20 min. linear gradient from 68:32 (v/v) methanol/ water containing 10 mM ammonium acetate to 4:1 (v/v) methanol:dichloromethane followed by a 5 min. hold at a flow rate of 1 mL/min. The column eluate was monitored from 300 nm to 400 nm.

TGase I = test: Transglutaminase (TGase I ELISA) assay in cultured keratinocytes; type: cell-based; conditions: booster in combination with a constant retinol concentration of 10^−7M; read-out: Overall TG (IC 50)
Protocol: Transglutaminase Assay and Keratinocyte Differentiation
An ELISA based TGase I assay, using a TGase I antibody, was used to assess the state of differentiation of the cultured keratinocytes in the examples that follow.
Keratinocytes (cultured as described above) were plated in 96 well plates at a density of 4,000-5,000 cells per well in 200 μl media. After incubation for two to three days, or until cells are ˜50% confluent, the media was changed to media containing test compounds (five replicates per test). The cells were cultured for a further 96 hours after which time the media was aspirated and the plates stored at −70° C. Plates were removed from the freezer, and the cells were washed twice with 200 μl of 1×PBS. The cells were incubated for one hour at room temperature (R/T) with TBS/5% BSA (wash buffer, bovine serum albumin). Next the TGase primary antibody was added: 50 μl of monoclonal anti-Tgase I Ab B.C. diluted 1:2000 in wash buffer. The primary antibody was incubated for 2 hours at 37° C. and then rinsed 6× with wash buffer. Cells were then incubated with 50 μl of secondary antibody (Fab fragment, peroxidase conjugated anti-mouse IgG obtaining from Amersham) diluted 1:4,000 in wash buffer for two hours at 37° C., then rinsed three times with wash buffer. Following the rinse with washing buffer, the cells were rinsed 3× with PBS. For colourimetric development, the cells were incubated with 100 μl substrate solution (4 mg o-phenylenediamine and 3.3 μl 30% H2O2 in 10 ml 0.1M citrate buffer pH 5.0) for exactly five minutes, R/T, in darkness (under aluminum foil). The reaction was stopped by the addition of 50 μl 4N H2SO4. […] Out of the five replicates, four were treated with both antibodies, the fifth one was use as a Tgase background control. TGase levels were determined and expressed as percentage control.
(i) % (booster+retinol inhibition/control inhibition)−% (ROH inhibition/control inhibition), which measures the added effect of booster+retinol induced TGase inhibition over retinol alone, or

ARAT = test: Assay for ARAT activity, RPE microsomes; type: biochemical, bovine; conditions: for % Inhibition ARAT (10 μm): 10 μm compound; for % Inhibition ARAT (100 μm): 100 μm compound
Protocol: (§3) 50 frozen hemisected bovine eyecups, with the retina and aqueous humor removed were obtained from W. L. Lawson Co., Lincoln, Nebr., USA. The eyes were thawed overnight and the colored iridescent membrane was removed by peeling with forceps. […] The cell suspension was added to the iridescent membranes and the suspension was stirred for several minutes in a beaker with a Teflon stir bar. […] The cell homogenate was centrifuged for 30 min. at 20,000 g (Sorvaal model RC-5B centrifuge with an SS34 rotor in 2.5×10 cm tubes at 14,000 RPM). The resulting supernatant was subjected to further centrifugation for 60 min. at 150,000 g (Beckman model L80 Ultracentrifuge with an SW50.1 rotor in 13×51 mm tubes at 40,000 RPM). The resulting pellets were dispersed into ˜5 mL 0.1M PO4/5 mM DTT, pH 7 buffer using a Heat Systems Ultrasonics, Inc. model W185D Sonifier Cell Disruptor, and the resulting microsomal dispersion was aliquoted into small tubes and stored at −70° C. The protein concentrations of the microsomes were determined using the BioRad Dye binding assay, using BSA as a standard.
(§4) 2.3 Assay for ARAT and LRAT activity (To identify B1)
(§5) The following buffer was prepared and stored at 4° C.: 0.1M PO4/5 mM dithiothreitol, pH 7.0 (PO4/DTT). On the day of the assay, add 2 mg BSA per mL of buffer to give a PO4/DTT/BSA working buffer. 1 mM retinol substrate was prepared in acetonitrile and stored in amber bottles under nitrogen gas at −20° C. Solutions of 4 mM Palmitoyl-CoA in working buffer (stored in aliquots) and 4 mM dilauroyl phosphatidyl choline in ethanol were prepared and stored at −20° C. Inhibitors were prepared as 10 mM stock solutions in H2O, ethanol, acetonitrile or DMSO. The quench solution was prepared using pure ethanol containing 50 μg/mL butylated hydroxytoluene (BHT), and a hexane solution containing 50 μg/mL BHT was used for the extractions.
(§6) Incubate for 5 min. at 37° C. to equilibrate the reaction temperature and then add 5 μL 1 mM retinol. Cap the vials, vortex for 5 seconds and incubate for 30-90 minutes at 37° C. Quench the reaction by adding 0.5 mL ethanol/BHT. Extract the retinoids by adding 3 mL hexane/BHT, vortex the tubes for several seconds several times and centrifuge the tubes at low speed for 5 min. to quickly separate the layers. Remove the upper hexane layer into a clean vial, and re-extract the aqueous layer with another 3 mL hexane/BHT, as described above. Combine the hexane layers and evaporate the hexane by drying at 37° C. under a stream of nitrogen gas on a heated aluminum block. Store the dried residue at −20° C. until HPLC analysis. Quantitate the amount of retinyl palmitate and retinyl laurate for ARAT and LRAT activity, respectively, by integration of the HPLC signal as described below.
(§7) Note that the incubation solution contains 40 μM acyl donor, 100 μM or less inhibitor, 10 μM retinol, approximately 30 μg/mL microsomal protein, and nearly 0.1M PO4, pH 7/5 mM DTT/2 mg/mL BSA. All steps subsequent to the addition of retinol were done in the dark or under amber lights.
as §1, §2
(§8) These protocols were selected based on their ability to clearly resolve pertinent retinoid acids, alcohols, aldehydes, and/or esters for each assay and relative quickness of separation.

LRAT = target: T1, LRAT (Bos taurus, UniProt Q9BGL2); test: Assay for LRAT activity, RPE microsomes; type: biochemical, bovine; conditions: for % Inhibition LRAT (10 μm): 10 μm compound; for % Inhibition LRAT (100 μm): 100 μm compound
T1 construct: followed by approximately 15 μg of RPE microsomal protein; tissue W. L. Lawson Co., Lincoln, Nebr; host or cells: bovine retinal pigment epithelium microsomes
T1 sequence (Q9BGL2 1-230): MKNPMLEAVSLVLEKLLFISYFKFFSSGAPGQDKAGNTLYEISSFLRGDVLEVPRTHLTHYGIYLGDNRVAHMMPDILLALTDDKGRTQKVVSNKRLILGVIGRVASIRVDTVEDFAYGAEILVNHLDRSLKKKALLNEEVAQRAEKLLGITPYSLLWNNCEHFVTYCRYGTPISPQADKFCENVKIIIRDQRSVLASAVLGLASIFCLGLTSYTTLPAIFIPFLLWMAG
Protocol: as §3, §4, §5, §6, §7, §1, §2, §8

CRABP-II = CRABP-II expression in adult fibroblasts (dot blot); type: cell-based, human; conditions: for CRABP-II production: 48 hours; for % as Control: control as 100%
Protocol: Cells were grown in 1:1 DMEM/Hams F12 media containing 10% FBS, maintained at 37° C. in a 5% CO2 atmosphere under normal atmosphere oxygen tension. Third passage adult fibroblasts were grown in DMEM media with 10% FBS in 12-well plates at a seeding density of 2500 cells/ml/well. The cells at 80% confluence were rinsed in serum free and phenol red free (PRF) DMEM media twice. Pre-treatment with phyto-compounds for 4 hours was conducted and then dosed with retinoids and was incubated for 48 hours. After the incubation, the wells were washed twice with 1×PBS and the cell monolayer was harvested in 100 μl cell lysis buffer (contains 1×PBS, 1% Triton X, 0.5% sodium deoxycholate, 0.1% SDS containing protease inhibitor (10 mg/ml PMSF in isopropanol, 10 μl/ml). The suspension was spun at 14000 rpm for 10 minutes, the supernatant collected and an aliquot of this supernatant was used for protein quantification. Protein concentration was determined using Pierce protein kit. The remainder of 100 μl supernatant (cell lysate) was denatured in a mixture of 40 μl sample buffer (NOVEX) and 0.5% Beta mercaptoethanol (BME) and by boiling the sample for 5 minutes.
To measure the levels of CRABP-II in the fibroblasts, the equal amount of protein of cell supernatant were loaded onto to nitrocellulose blots in a dot blot apparatus as instructed by the manufactorer, and immunostaining was carried out using monoclonal antibodies to CRABP-II according to standard procedures. The CRABP-II protein band was visualized in the Dot Blots using the chemiluminescence system obtained from Santa Cruz Biotechnology (SantaCruz, Calif.). The bands in the film were quantitated by dens tometric scanning, the data from the triplicate samples were calculated as % of control and expressed in the following tables as % increase over control (with control as 100%) +/−SD triplicates.

Row | Molecule | % Inhibition ARAT (100 μm) (ARAT) | % Inhibition LRAT (100 μm) (LRAT) | other results
1 | CC(C)(C(=O)c1cccnc1)c1cccnc1 [2-Methyl-1,2-di-3-Pyridyl-1-Propane] |  |  | % Inhibition Retinoic Acid (100 μM) [1]: 47%
2 | O=c1c2cccc3cccc(c32)c2nc3ccccc3n12 [(7H-Benzimidazo[2,1-a]Benz[de]-Isoquinolin-7-one] |  |  | IC50 (TGase I): 0.859 µM
3 | CCCCCCCCCCCCC/C=C/[C@@H](O)[C@H](CO)NC(C)=O [Acetyl Sphingosine] | 62% +/− 11 | 50% +/− 18 | IC50 (TGase I): 6.78 µM; % Inhibition ARAT (10 μm) (ARAT): 19% +/− 12; % Inhibition LRAT (10 μm) (LRAT): 10% +/− 10
4 | C/C=C\C(=O)C1C(C)=CCCC1(C)C (stereo not drawn) [Alpha-Damascone] |  | 98% +/− 1 | IC50 (TGase I): 335 µM; % Inhibition LRAT (10 μm) (LRAT): 87% +/− 6
5 | CCC(=O)/C=C/C1C(C)=CCCC1(C)C (stereo not drawn) [Alpha-Methyl Ionone] | 67% | 77% | 
6 | C/C=C/C(=O)C1=C(C)CCCC1(C)C [Beta-Damascone] |  | 92% | % Inhibition LRAT (10 μm) (LRAT): 52%
7 | c1ccc(-c2ccc(C(c3ccccc3)n3ccnc3)cc2)cc1 (stereo not drawn) [Bifonazole] |  |  | % Inhibition Retinoic Acid (10 μM) [1]: 89%; % Inhibition Retinoic Acid (100 μM) [1]: 100%
8 | CC1=CCC(CCC(C)CO)C1(C)C (stereo not drawn) [Brahmanol] | 70% | 75% | 
9 | CC(C)=CCCC(C)CCO (stereo not drawn) [Citronellol] | 30% |  | 
10 | CC(C)(C)C(=O)C(Oc1ccc(Cl)cc1)n1ccnc1 (stereo not drawn) [Climbazole] |  |  | % Inhibition Retinoic Acid (10 μM) [1]: 80%; % Inhibition Retinoic Acid (100 μM) [1]: 92%
11 | Clc1ccccc1C(c1ccccc1)(c1ccccc1)n1ccnc1 [Clotrimazole] |  |  | % Inhibition Retinoic Acid (10 μM) [1]: 76%
12 | CC(/C=C/C=C(\C)C(=O)O)=C\C=C\C=C(C)\C=C\C=C(/C)C(=O)O [Crocetin] | 34% |  | % Inhibition ARAT (10 μm) (ARAT): 15%
13 | C/C=C/C(=O)C1=C(C)C=CCC1(C)C [Damascenone] |  | 79% | % Inhibition LRAT (10 μm) (LRAT): 29%
14 | C/C=C/C(=O)C1C(C)C=CCC1(C)C (stereo not drawn) [Delta-Damascone] |  | 95% | % Inhibition LRAT (10 μm) (LRAT): 64%
15 | CC(=O)CCC1C(C)=CCCC1(C)C (stereo not drawn) [Dihydro Alpha-Ionone] | 13% | 18% | 
16 | CCCCCCCC(=O)OC[C@H](COP(=O)(O)OCCN)OC(=O)CCCCCCC [Dioctylphosphatidyl Ethanolamine] |  | 17% +/− 17 | % Inhibition ARAT (10 μm) (ARAT): 23%; % Inhibition LRAT (10 μm) (LRAT): 0%
17 | Clc1ccc(COC(Cn2ccnc2)c2ccc(Cl)cc2Cl)cc1 (stereo not drawn) [Econazole] |  |  | % Inhibition Retinoic Acid (10 μM) [1]: 88%; % Inhibition Retinoic Acid (100 μM) [1]: 100%
18 | CCOC(=O)C1=C(C)C=CCC1(C)C [Ethyl Saffranate] |  | 49% | 
19 | CC(C)=CCCC(C)=CCCC(C)=CCO [Farnesol] | 53% +/− 18 |  | % Inhibition ARAT (10 μm) (ARAT): 23% +/− 18
20 | CC12CCC(C1)C(C)(C)C2O (stereo not drawn) [Fenchyl Alcohol] | 12% |  | 
21 | CC(=O)/C(C)=C/C1C(C)=CCCC1(C)C (stereo not drawn) [Gamma-Methyl Ionone] |  | 38% | 
22 | CC(C)=CCC/C(C)=C/CC/C(C)=C/CC/C(C)=C/CO [Geranyl Geraniol] | 81% +/− 6 |  | % Inhibition ARAT (10 μm) (ARAT): 38% +/− 12
23 | CCCCCC(N)=O [Hexanoamide] | 20% |  | 
24 | CCCCCCCCCCCCC/C=C/[C@@H](O)[C@H](CO)NC(=O)CCCCC [Hexanoyl Sphingosine] |  | 37% +/− 9 | IC50 (TGase I): 99.9 µM
25 | CCCCCCCCCCC(O)C(=O)NCCO (stereo not drawn) [Hydroxyethyl-2-Hydroxy-C12 Amide] |  | 35% | IC50 (TGase I): 32.9 µM
26 | CC1=CC(C)C(CO)C(C)C1 (stereo not drawn) [Isocyclogeraniol] | 18% | 16% | 
27 | CC=CC(=O)C1CCC(C)(C)C=C1C (stereo not drawn) [Isodamascone] | 80% | 92% | 

Row | Molecule | % Inhibition ARAT (100 μm) (ARAT) | % Inhibition LRAT (100 μm) (LRAT) | other results
28 | CCCCCCCCCCCC1=NCCN1CCO [Lauryl Hydroxyethylimidazoline] |  |  | IC50 (TGase I): 0.467 µM
29 | CCN(CC)CC(=O)Nc1c(C)cccc1C [Lidocaine, reference compound] | 12% |  | 
30 | CCCCC/C=C\C/C=C\CCCCCCCC(=O)NCCCN(C)C [Linoleamidopropyl Dimethylamine] | 69% +/− 18 |  | 
31 | CCCCC/C=C\C/C=C\CCCCCCCC(=O)NCCO [Linoleoyl Monoethanolamide] |  |  | IC50 (TGase I): 16.1 µM
32 | CC(C)(O)CCCC1=CCC(C=O)CC1 (stereo not drawn) [Lyral] | 76% |  | 
33 | CCCCC/C=C/C/C=C/CCCCCCCC(=O)NC(C)c1ccccc1 (stereo not drawn) [Melinamide, reference compound] | 64% +/− 15 |  | 
34 | CCCCCCCCCCCCCC(=O)N(C)CC(=O)O [Myristoyl Sarcosine] | 41% +/− 14 |  | 
35 | O=C1C[C@@H](c2ccc(O)cc2)Oc2cc(O)cc(O)c21 [Naringenin] | 33% |  | 
36 | CCCCCCCC/C=C\CCCCCCCC[N+](C)(C)CC(=O)[O-] [Oleyl Betaine] | 47% |  | IC50 (TGase I): 28 µM
37 | CCCCCCCC/C=C\CCCCCCCC1=NCCN1CCO [Oleyl Hydroxyethylimidazoline] |  |  | IC50 (TGase I): 30.2 µM
38 | CC(=O)/C=C/C=C(\C)CCC=C(C)C [Pseudoionone] |  | 37% | 
39 | CC1=C(/C=C/C(C)=C/C=C/C(C)=C/C(=O)O)C(C)(C)CCC1 [Retinoic acid, reference compound] |  |  | CRABP-II production (CRABP-II; 1 nM retinoid alone): 0.97+/−0.47; % as Control (CRABP-II; 1 nM retinoid alone): 335+/−162%; CRABP-II production (CRABP-II; 10 nM retinoid alone): 1.24+/−0.29; % as Control (CRABP-II; 10 nM retinoid alone): 428+/−101%
40 | CC(=O)OC/C=C(C)/C=C/C=C(C)/C=C/C1=C(C)CCCC1(C)C [Retinyl Acetate] |  |  | CRABP-II production (CRABP-II; 100 nM retinoid alone): 0.60+/−0.32; % as Control (CRABP-II; 100 nM retinoid alone): 209+/−118%
41 | CCCCC/C=C\C/C=C\CCCCCCCC(=O)OC/C=C(C)/C=C/C=C(C)/C=C/C1=C(C)CCCC1(C)C [Retinyl Linoleate] |  |  | CRABP-II production (CRABP-II; 100 nM retinoid alone): 0.52+/−0.3; % as Control (CRABP-II; 100 nM retinoid alone): 181+/−110%
42 | CCCCCCCCCCCCCCCC(=O)OC/C=C(C)/C=C/C=C(C)/C=C/C1=C(C)CCCC1(C)C [Retinyl Palmitate] |  |  | CRABP-II production (CRABP-II; 100 nM retinoid alone): 1.26+/−0.51; % as Control (CRABP-II; 100 nM retinoid alone): 434+/−177%
43 | CC(=O)C1(C)C2CC3C(C2)C31C (stereo not drawn) [Santalone] | 23% | 12% | 
44 | CCCC(O)CCC1C(C)CCCC1(C)C (stereo not drawn) [Timberol] |  | 33% | 
45 | CC(=O)c1cc2c(cc1C)C(C)(C)C(C)CC2(C)C (stereo not drawn) [Tonalid] | 50% |  | 
46 | CC(=O)c1cc2c(cc1C)C(C)(C)[C@H](C)[C@H]2C(C)C [Traseolide] | 41% |  | 
47 | Castor Oil MEA |  |  | IC50 (TGase I): 32.5 µM
48 | Coco Hydroxyethylimidazoline |  | 68% | 
49 | Coco Trimethylammonium Cl- | 27% |  | 
50 | Cocoyl Monoethanolamide | 13% | 34% | 
51 | Glycerol-PCA-Oleate | 41% +/− 6 | 58% +/− 2 | 
52 | Hydroxyquinoline (Carbostyril) |  |  | IC50 (TGase I): 364 µM
53 | Isobutyl Ionone | 8% | 45% | 
54 | Santanol | 15% | 43% | 
